{"source": "patent US6951733B2", "about": "“Method for testing drug susceptibility of Mycobacterium tuberculosis” (priority 2000, dated 2005)", "key": {"[1]": {"tested_on": "13 M. tuberculosis pan-susceptible strains", "assay": "MIC determination on HSTB agar, susceptible strains", "assay_type": "cell-based", "conditions": "for MIC: Mycobacterium tuberculosis, HSTB agar"}, "[2]": {"tested_on": "55 M. tuberculosis clinical isolates", "assay_type": "cell-based"}, "[3]": {"tested_on": "13 M. tuberculosis pan-susceptible strains", "conditions": "adopted for 7H11 agar; cited from earlier work"}, "[4]": {"conditions": "strains Susceptible by the BACTEC 300 μg/ml"}, "[5]": {"conditions": "strains Susceptible by the BACTEC 900 μg/ml"}}, "note": "Like-named read-outs stand apart in the source and are kept apart here.", "data": [{"smiles": "NNC(=O)c1ccncc1", "note": "[INH, isoniazid]", "values": [{"measurement": "MIC", "setting": "[1]; 0.2: 13 strains, read-out: MICs (mcg/ml) of INH for 13 Susceptible Strains, HSTB", "result": 0.2, "unit": "µg/mL"}, {"measurement": "MIC", "setting": "[1]; all 13 strains, read-out: MIC of INH", "result": 0.2, "unit": "µg/mL"}]}, {"smiles": "NC(=O)c1cnccn1", "note": "[PZA, pyrazinamide]", "values": [{"measurement": "Number of strains by the agar proportion method, 900 μg/ml Susceptible", "setting": "[2]; [4]", "result": 25}, {"measurement": "Number of strains by the agar proportion method, 1200 μg/ml Susceptible", "setting": "[2]; [4]", "result": 25}, {"measurement": "Number of strains by the agar proportion method, 900 μg/ml Susceptible", "setting": "[2]; [5]", "result": 26}, {"measurement": "Number of strains by the agar proportion method, 1200 μg/ml Susceptible", "setting": "[2]; [5]", "result": 27}]}, {"smiles": "CO[C@H]1/C=C/O[C@@]2(C)Oc3c(C)c(O)c4c(O)c(c(/C=N/N5CCN(C)CC5)c(O)c4c3C2=O)NC(=O)/C(C)=C\\C=C\\[C@H](C)[C@H](O)[C@@H](C)[C@@H](O)[C@@H](C)[C@H](OC(C)=O)[C@@H]1C", "note": "[RMP, rifampin]", "values": [{"measurement": "critical concentration of RMP", "setting": "[1]", "result": 2.0, "unit": "µg/mL"}, {"measurement": "critical concentration of RMP", "setting": "[3]", "result": 1.0, "unit": "µg/mL"}]}]}
